Laboratory results: US20210386367A1, “DEVICES AND SYSTEMS FOR GASTROINTESTINAL MICROBIOME DETECTION AND MANIPULATION” (Progenity, Inc., priority 2018, published 2021)
Converted amounts (≈) assume the structure as drawn. “And” between values parts separate entries of the source, which are not always exact repeats. Equal entries are not always repeated. Where two headings read alike, the source gives them in different places.

Experiments:
[1] = system: Streptococcus agalactiae clinical isolates; test: MIC distribution against clinical isolates; assay type: cell-based
How it was run: (§1)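 MIC is the lowest agent concentration preventing growth, determined by broth or agar dilution with serial compound dilutions and incubation under appropriate conditions (e.g., overnight at 37° C.). MIC90 is the concentration inhibiting ≥90% of isolates in the test population.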

[2] = system: Bacteroides fragilis clinical isolates; test: MIC distribution against clinical isolates; assay type: cell-based; details: 30 B. fragilis isolates
How it was run: as §1

B. fragilis ATCC 25285 = test: Broth microdilution MIC (time-kill study); assay type: cell-based, Bacteroides fragilis
Streptococcus spp. = test: Spontaneous mutation frequency assay; assay type: cell-based; details: selection at 4× and 8× MIC
Protocol: Initial values of the MIC were determined by agar dilution in accordance with guidelines from the Clinical and Laboratory Standards Institute (CLSI; (1) “Methods for Dilution Antimicrobial Susceptibility Tests for Bacteria That Grow Aerobically; Approved Standard; 11th ed.,” CLSI standard M07, 2018; (2) “Methods for Antimicrobial Susceptibility Testing of Anaerobic Bacteria; Approved Standard—Eighth Edition,” CLSI document M11-A8, 2012.).
The agar plates were prepared by mixing a ratio of 1.0 mL of concentrated drug to 49.0 mL of the appropriate molten (47° C.) agar; the drug-supplemented agar was mixed, poured into 15-by-150 mm petri dishes and allowed to solidify and dry at room temperature prior to inoculation. […] Each plate was allowed to cool at room temperature for at least 1 hr.
The isolates were streaked onto the appropriate agar medium and incubated for 20 hr (aerobes) or 48 hr (Bacteroides under anaerobic conditions). Using a sterile swab, several well-isolated colonies were removed and resuspended in sterile saline at a heavy cell density. Each plate was inoculated with 0.5 mL of the cell suspension (each test concentration was inoculated in duplicate). The target inoculum for each spontaneous mutation plate was 10^9-10 CFU. In addition, a portion of the inoculum from each isolate was enumerated by making dilutions, spreading on agar and counting colonies.
Once the inoculum was absorbed into the agar, the plates were incubated at 35° C. Aerobes were examined at 24 and 48 hr, and resulting colonies were counted. Bacteroides were incubated anaerobically for 48-72 hr in the anaerobe chamber and colonies were counted.
Colony counts from plates used to enumerate the initial inoculum density and from the resulting spontaneous mutation frequency test plates were determined. The inoculum size was calculated as CFU inoculated per plate. The spontaneous mutation frequency was calculated using the counts from duplicate spontaneous mutation assay test plates as follows:
If there were no colonies on the antibiotic selection plates, the spontaneous mutation frequency was reported as less than the frequency observed with one colony to indicate that the spontaneous mutation frequency was less than the limit of detection (one CFU). […] The mutation prevention concentration (MPC) was reported as the lowest concentration for which no mutants were selected.

Veillonella spp. = test: Agar dilution MIC, 30 clinical isolates; assay type: cell-based
Clostridium spp. = test: Agar dilution MIC, 10 clinical isolates; assay type: cell-based
E. coli MMX 1312 = test: Time-kill assay; assay type: cell-based, Escherichia coli; details: 2×, 4×, 8× MIC; 2, 6, 24 hr
B. ovatus MMX 3503 = test: Broth microdilution MIC (time-kill study); assay type: cell-based, Bacteroides ovatus
B. vulgatus ATCC 8482 = test: Broth microdilution MIC (time-kill study); assay type: cell-based, Bacteroides vulgatus
SIBO Bacteria = details: cited from earlier work
[3] = MIC 0.06 μg/mL, 20 S. agalactiae isolates
[4] = 30 Veillonella spp. clinical isolates
[5] = 10 Clostridium spp. clinical isolates
[6] = B. ovatus MMX 3504 (so in the source)
[7] = MIC 1 μg/mL, 20 S. agalactiae isolates

COc1c(N2C[C@@H]3CCCN[C@@H]3C2)c(F)cc2c(=O)c(C(=O)O)cn(C3CC3)c12 [moxifloxacin]
Cumulative percentage of isolates inhibited at MIC [1, 3]: 15.0% | Number of test isolates at MIC [1, 3]: 3

CO[C@H]1/C=C/O[C@@]2(C)Oc3c(C)c(O)c4c(O)c(c5c(nc6cc(C)ccn65)c4c3C2=O)NC(=O)/C(C)=C\C=C\[C@H](C)[C@H](O)[C@@H](C)[C@@H](O)[C@@H](C)[C@H](OC(C)=O)[C@@H]1C [rifaximin]
Number of test isolates at MIC ([2]; MIC 1 μg/mL): 1 | Cumulative percentage of isolates inhibited at MIC ([2]; MIC >32 μg/mL): 100.0% | Number of test isolates at MIC ([2]; MIC >32 μg/mL): 1 | Cumulative percentage of isolates inhibited at MIC ([1]; listed as RFX): 75.0% and 100.0% | MIC (B. fragilis ATCC 25285; B. fragilis MMX 123 ATCC 25285): 0.5 µg/mL (≈ 0.636 µM) | MIC (B. fragilis ATCC 25285; broth microdilution): 0.05 µg/mL (≈ 0.0636 µM) | Spontaneous Mutation Frequency (Streptococcus spp.): ≥ 2.77×10^−8 | Spontaneous Mutation Frequency (Streptococcus spp.; listed as rifampin): ~10^−8 | MIC50 (Veillonella spp.): 4 µg/mL (≈ 5.09 µM) | MIC90 (Veillonella spp.): 8 µg/mL (≈ 10.2 µM) | MIC50 (Veillonella spp.; [4]): 4 µg/mL (≈ 5.09 µM) | MIC90 (Veillonella spp.; [4]): 8 µg/mL (≈ 10.2 µM) | MIC range (Veillonella spp.; [4]): 0.12 to 16 µg/mL | Mode (Veillonella spp.; modal MIC, 30 Veillonella spp. clinical isolates): 2 µg/mL | MIC50 (Clostridium spp.): > 64 µg/mL | MIC90 (Clostridium spp.): > 64 µg/mL | MIC50 (Clostridium spp.; [5]): >64 µg/mL | MIC90 (Clostridium spp.; [5]): >64 µg/mL | Mode (Clostridium spp.; modal MIC, 10 Clostridium spp. clinical isolates): >64 µg/mL | time-kill kinetics outcome (bactericidal = ≥3 log reduction in CFU per mL) (E. coli MMX 1312): Regrowth was also observed for all concentrations | MIC (B. ovatus MMX 3503; [6]): 2 µg/mL (≈ 2.54 µM) | MIC (B. ovatus MMX 3503; broth microdilution): 1 µg/mL (≈ 1.27 µM) | MIC (B. vulgatus ATCC 8482; B. vulgatus ATCC 8482): 0.25 µg/mL (≈ 0.318 µM) | MIC (B. vulgatus ATCC 8482; broth microdilution): 0.25 µg/mL (≈ 0.318 µM)

CN[C@H](CC(C)C)C(=O)N[C@H]1C(=O)N[C@@H](CC(N)=O)C(=O)N[C@H]2C(=O)N[C@H]3C(=O)N[C@H](C(=O)N[C@H](C(=O)O)c4cc(O)cc(O)c4-c4cc3ccc4O)[C@H](O)c3ccc(c(Cl)c3)Oc3cc2cc(c3O[C@@H]2O[C@H](CO)[C@@H](O)[C@H](O)[C@H]2O[C@H]2C[C@](C)(N)[C@H](O)[C@H](C)O2)Oc2ccc(cc2Cl)[C@H]1O [vancomycin, Vancomycin]
Cumulative percentage of isolates inhibited at MIC [1, 7]: 100.0% | Number of test isolates at MIC [1, 7]: 1 | MIC (B. fragilis ATCC 25285; Bacteroides fragilis, ATCC25285, B. fragilis MMX 123 ATCC 25285, read-out: MIC): > 16 µg/mL | MIC (B. ovatus MMX 3503; Bacteroides ovatus, MMX3503, B. ovatus MMX 3504 (so in the source), read-out: MIC): > 16 µg/mL | MIC (B. vulgatus ATCC 8482; Phocaeicola vulgatus, ATCC8482, B. vulgatus ATCC 8482, read-out: MIC): > 16 µg/mL

piperacillin/tazobactam [piperacillin-tazobactam]
activity against SIBO organisms (SIBO Bacteria): active against SIBO organisms | MIC (B. fragilis ATCC 25285; B. fragilis MMX 123 ATCC 25285): 8 µg/mL | MIC (B. ovatus MMX 3503; [6]): >16 µg/mL | MIC (B. vulgatus ATCC 8482; B. vulgatus ATCC 8482): 4 µg/mL
